# System: Colo205 human colon carcinoma cell line
# Experiment: In vitro tumor cell proliferation assay (MTS, CellTiter 96 Aqueous One Solution)
# Assay type: cell-based
# Conditions: COLO 205, Colo205 cells, 72 hours compound exposure, MTS absorbance at 490 nm, read-out: IC50 (concentration of test compound required to inhibit proliferation of 50% of the cells)
# Description: In Vitro Tumor Cell Proliferation Assay
# The adherent H460 human non-small cell lung carcinoma and Colo205 human colon carcinoma cell lines were purchased from the American Type and Culture Collection (ATCC, Manassas, Va.) and maintained in RPMI-1640 growth media supplemented with 10% heat inactivated fetal bovine serum (Gibco, Invitrogen Corp. Grand Island, N.Y.). At 37° C. in a humidified atmosphere of 5% CO2.
# The CellTiter 960 Aqueous One Solution kit, MTS, (Promega, Madison, Wis.) was used to measure proliferation of tumor cell lines in vitro. This method monitors the bioreduction of a tetrazolium dye as a measure of cell viability. On Day 0, exponentially growing cells were trypsinized, resuspended in RPMI-1640 growth media supplemented with 10% FCS, 100 u/ml of penicillin G and 100 ug/ml of streptomycin sulfate, and seeded at 2000 cells per well into 96 well microtiter plates. Cells were incubated overnight in a humidified atmosphere of 5% CO2 at 37° C. On Day 1, serial dilutions of compounds were prepared at 2× the finial assay concentration. One hundred microliters of 2× solution was added to test wells in duplicate and control wells received no test compound. The final drug concentration ranged from 0 to 10-20 um in a 5 point dose-response curve. Cells were incubated in the presence of test compounds in a humidified atmosphere of 5% CO2 at 37° C. for 72 hours. After 72 hours of compound exposure, 40 ul of Promega CellTiter 960 Aqueous One Solution was added to each well and absorbance at 490 n-M was measured using a multi-well plate reader. Percent inhibition of proliferation was calculated using the following formula: 100×(1−Absorbancetreated−Background/(Absorbancecontrol−Background)
# Absorbancetreated=absorbance at 490 nm in test wells, cells with test compound
# Absorbancecontrol=absorbance at 490 nm in control wells, cells with no test compound
# Background=absorbance 490 nm in wells containing media and no cells
# The concentration of test compound required to inhibit proliferation of 50% of the cells (IC50) was determined by linear regression analysis.
# Representative compounds of the invention were tested in the above-described Colo205 human colon carcinoma cell line in vitro assay and found to inhibit human colon carcinoma cell proliferation, and are summarized as follows: […]
row,IC50 [nM],SMILES
1,< 500,"CN(C)Cc1ccc(-n2cc(C(=O)O)c(=O)c3cc(F)c(N4CCN(c5ncccc5C#N)CC4)c(OC(F)(F)Cl)c32)cc1 [Example 158, 8-[chloro(difluoro)methoxy]-7-[4-(3-cyanopyridin-2-yl)piperazin-1-yl]-1-{4-[(dimethylamino)methyl]phenyl}-6-fluoro-4-oxo-1,4-dihydroquinoline-3-carboxylic acid]"
2,2000 to 20000,"CON(C)Cc1ccc(-n2cc(C(=O)O)c(=O)c3cc(F)c(N4CCN(c5ncccc5C#N)CC4)c(Cl)c32)cc1 [Example 54, 8-chloro-7-[4-(3-cyanopyridin-2-yl)piperazin-1-yl]-6-fluoro-1-(4-{[methoxy(methyl)amino]methyl}phenyl)-4-oxo-1,4-dihydroquinoline-3-carboxylic acid]"
3,< 500,"CN(C)Cc1ccc(-n2cc(C(=O)O)c(=O)c3cc(F)c(N4CCN(c5cccc(Cl)c5)CC4)c(OC(F)(F)F)c32)cc1 [Example 130, 7-[4-(3-chlorophenyl)piperazin-1-yl]-1-{4-[(dimethylamino)methyl]phenyl}-6-fluoro-4-oxo-8-(trifluoromethoxy)-1,4-dihydroquinoline-3-carboxylic acid]"
4,< 500,"O=C(O)c1cn(-c2ccc(CNC3CCCC3)cc2)c2c(OC(F)(F)Cl)c(N3CCN(c4ccc(F)cc4)CC3)c(F)cc2c1=O [Example 181, 8-(chloro-difluoromethoxy)-1-(4-cyclopentylaminomethyl-phenyl)-6-fluoro-4-oxo-7-[4(4-fluorophenyl)piperazine-1-yl]-1,4-dihydroquinoline-3-carboxylic acid]"
5,500 to 2000,"O=C(O)c1cn(-c2ccc(CNC3CCCC3Cl)cc2)c2c(Cl)c(N3CCN(c4ccccn4)CC3)c(F)cc2c1=O (centres unmarked) [Example 173, 8-chloro-1-{4-[(2-chloro-cyclopentylamino)-methyl]-phenyl}-6-fluoro-4-oxo-7-(4-pyridin-2-yl-piperazine-1-yl)-1,4-dihydro-quinoline-3-carboxylic acid]"
6,< 500,"COc1c(N2CCN(c3cccc(Cl)c3)CC2)c(F)cc2c(=O)c(C(=O)O)cn(-c3ccc(CN(C)C)cc3)c12 [Example 98, 7-[4-(3-chlorophenyl)piperazin-1-yl]-1-{4-[(dimethylamino)methyl]phenyl}-6-fluoro-8-methoxy-4-oxo-1,4-dihydroquinoline-3-carboxylic acid]"
7,2000 to 20000,"O=C(O)c1cn(-c2cccc(CN3CCCCC3)c2)c2c(Cl)c(N3CCN(c4ccc(F)cc4F)CC3)c(F)cc2c1=O [Example 64, 8-chloro-7-[4-(2,4-difluorophenyl)piperazin-1-yl]-6-fluoro-4-oxo-1-[3-(piperidin-1-ylmethyl)phenyl]-1,4-dihydroquinoline-3-carboxylic acid]"
8,< 500,"Cc1ccc(N2CCN(c3c(F)cc4c(=O)c(C(=O)O)cn(-c5ccc(CN6CCCC6)cc5)c4c3OC(F)(F)Cl)CC2)cc1C [Example 151, 8-[chloro(difluoro)methoxy]-7-[4-(3,4-dimethylphenyl)piperazin-1-yl]-6-fluoro-4-oxo-1-[4-(pyrrolidin-1-ylmethyl)phenyl]-1,4-dihydroquinoline-3-carboxylic acid]"
9,< 500,"CCN(C)Cc1ccc(-n2cc(C(=O)O)c(=O)c3cc(F)c(N4CCN(c5ccc(F)cc5)CC4)c(OC(F)(F)Cl)c32)cc1 [Example 167, 8-[chloro(difluoro)methoxy]-1-(4-{[ethyl(methyl)amino]methyl}phenyl)-6-fluoro-7-[4-(4-fluorophenyl)piperazin-1-yl]-4-oxo-1,4-dihydroquinoline-3-carboxylic acid]"
10,< 500,"COc1c(N2CCN(c3ncccc3C#N)CC2)c(F)cc2c(=O)c(C(=O)O)cn(-c3ccc(CN4CCCC4)cc3)c12 [Example 79, 7-[4-(3-cyanopyridin-2-yl)piperazin-1-yl]-6-fluoro-8-methoxy-4-oxo-1-[4-(pyrrolidin-1-ylmethyl)phenyl]-1,4-dihydroquinoline-3-carboxylic acid]"
11,< 500,"O=C(O)c1cn(-c2ccc(CNC3CCC3)cc2)c2c(Cl)c(N3CCN(c4ncccn4)CC3)c(F)cc2c1=O [Example 191, 8-chloro-1-(4-cyclobutylaminomethyl-phenyl)-6-fluoro-4-oxo-7-(4-pyrimidin-2-yl-piperazin-1-yl)-1,4-dihydroquinoline-3-carboxylic acid]"
12,< 500,"O=C(O)c1cn(-c2ccc(CNC3CC3)cc2)c2c(Cl)c(N3CCN(c4ncccn4)CC3)c(F)cc2c1=O [Example 60, 8-chloro-1-{4-[(cyclopropylamino)methyl]-phenyl}-6-fluoro-4-oxo-7-(4-pyrimidin-2-ylpiperazin-1-yl)-1,4-dihydroquinoline-3-carboxylic acid]"
13,< 500,"O=C(O)c1cn(-c2ccc(CN3CCCC3)cc2F)c2c(Cl)c(N3CCN(c4ccccc4)CC3)c(F)cc2c1=O [Example 43, 8-chloro-6-fluoro-1-[2-fluoro-4-(pyrrolidin-1-ylmethyl)phenyl]-4-oxo-7-(4-phenylpiperazin-1-yl)-1,4-dihydroquinoline-3-carboxylic acid]"
14,< 500,"COC[C@H]1CCCN1Cc1ccc(-n2cc(C(=O)O)c(=O)c3cc(F)c(N4CCN(c5ccc(F)cc5)CC4)c(Cl)c32)cc1 [Example 23, 8-chloro-6-fluoro-7-[4-(4-fluorophenyl)-piperazin-1-yl]-1-(4-{[(2R)-2-(methoxymethyl)pyrrolidin-1-yl]methyl}phenyl)-4-oxo-1,4-dihydroquinoline-3-carboxylic acid]"
15,< 500,"O=C(O)c1cn(-c2ccc(CNC3CC3)cc2)c2c(Cl)c(N3CCN(c4ccccn4)CC3)c(F)cc2c1=O [Example 59, 8-chloro-1-{4-[(cyclopropylamino)-methyl]phenyl}-6-fluoro-4-oxo-7-(4-pyridin-2-ylpiperazin-1-yl)-1,4-dihydroquinoline-3-carboxylic acid]"
16,2000 to 20000,COc1c(N2CCN(c3ccc(C(F)(F)F)cc3)CC2)c(F)cc2c(=O)c(C(=O)O)cn(-c3ccc(CN4CCCC4)cc3)c12 [Example 82]
17,< 500,"CCN(CC)Cc1ccc(-n2cc(C(=O)O)c(=O)c3cc(F)c(N4CCN(c5ccc(C#N)cc5)CC4)c(OC)c32)cc1 [Example 108, 7-[4-(4-cyanophenyl)piperazin-1-yl]-1-{4-[(diethylamino)methyl]phenyl}-6-fluoro-8-methoxy-4-oxo-1,4-dihydroquinoline-3-carboxylic acid]"
18,< 500,"COc1c(N2CCN(c3ccc(F)cc3)CC2)c(F)cc2c(=O)c(C(=O)O)cn(-c3ccc(CN4CCCC4)cc3)c12 [Example 74, 6-fluoro-7-[4-(4-fluorophenyl)piperazin-1-yl]-8-methoxy-4-oxo-1-[4-(pyrrolidin-1-ylmethyl)phenyl]-1,4-dihydroquinoline-3-carboxylic acid]"
19,< 500,"CCN(C)Cc1ccc(-n2cc(C(=O)O)c(=O)c3cc(F)c(N4CCN(c5ccc(Cl)cc5)CC4)c(OC(F)(F)Cl)c32)cc1 [Example 168, 8-[chloro(difluoro)methoxy]-7-[4-(4-chlorophenyl)piperazin-1-yl]-1-(4-{[ethyl(methyl)amino]methyl}phenyl)-6-fluoro-4-oxo-1,4-dihydroquinoline-3-carboxylic acid]"
20,< 500,"COc1c(N2CCN(c3ncccn3)CC2)c(F)cc2c(=O)c(C(=O)O)cn(-c3ccc(CN4CCCC4)cc3)c12 [Example 73, 6-fluoro-8-methoxy-4-oxo-7-(4-pyrimidin-2-ylpiperazin-1-yl)-1-[4-(pyrrolidin-1-ylmethyl)phenyl]-1,4-dihydroquinoline-3-carboxylic acid]"
21,2000 to 20000,"COc1c(N2CCN(c3ccccc3[N+](=O)[O-])CC2)c(F)cc2c(=O)c(C(=O)O)cn(-c3ccc(CN(C)C)cc3)c12 [Example 104, 1-{4-[(dimethylamino)methyl]phenyl}-6-fluoro-8-methoxy-7-[4-(2-nitrophenyl)piperazin-1-yl]-4-oxo-1,4-dihydroquinoline-3-carboxylic acid]"
22,2000 to 20000,"O=C(O)c1cn(-c2cccc(CN3CCCCC3)c2)c2c(Cl)c(N3CCN(c4ccc(F)cc4)CC3)c(F)cc2c1=O [Example 67, 8-chloro-6-fluoro-7-[4-(4-fluorophenyl)-piperazin-1-yl]-4-oxo-1-[3-(piperidin-1-ylmethyl)phenyl]-1,4-dihydroquinoline-3-carboxylic acid]"
23,< 500,"N#Cc1cccnc1N1CCN(c2c(F)cc3c(=O)c(C(=O)O)cn(-c4ccc(CN5CCCC5)nc4)c3c2Cl)CC1 [Example 35, 8-chloro-7-[4-(3-cyanopyridin-2-yl)piperazin-1-yl]-6-fluoro-4-oxo-1-[6-(pyrrolidin-1-ylmethyl)pyridin-3-yl]-1,4-dihydroquinoline-3-carboxylic acid]"

# Source: US20070213339A1 (Bayer Pharmaceuticals Corporation, priority 2004, published 2007)
